Laboratory results from PubChem BioAssay AID330 (DTP/NCI, 2004).
Several values for one entry are separate records, joined by “and”; a condition that tells them apart may be missing. Equal entries are not always repeated. Toxic doses and inconclusive results are not listed. The calls were made as follows: active = survival T/C of 150% or more; inactive = T/C below 125% in these data.

Tested on: P388 leukemia ip, CD2F1 mice, survival T/C
Assay: NCI In Vivo Anticancer Drug Screen. Data for tumor model P388 Leukemia (intraperitoneal) in CD2F1 (CDF1) mice
Details: endpoint: median survival time, higher = longer survival
In short: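 Mice carrying the transplanted tumor received test compound or vehicle. Survival was recorded in each group, and the value is the treated-group measurement divided by that of the vehicle-treated control group.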

[1] = dose: 60.0 mg/kg/injection, schedule: Q01DX005 (ip), vehicle: saline with Tween-80
[2] = dose: 120.0 mg/kg/injection, schedule: Q01DX005 (ip), vehicle: saline with Tween-80
[3] = dose: 50.0 mg/kg/injection, schedule: Q01DX005 (ip), vehicle: saline with Tween-80
[4] = dose: 100.0 mg/kg/injection, schedule: Q01DX005 (ip), vehicle: saline with Tween-80
[5] = dose: 200.0 mg/kg/injection, schedule: Q01DX005 (ip), vehicle: saline with Tween-80
[6] = dose: 50.0 mg/kg/injection, schedule: Q01DX005 (ip), vehicle: Klucel (hydroxypropylcellulose) (HPC)
[7] = dose: 100.0 mg/kg/injection, schedule: Q01DX005 (ip), vehicle: Klucel (hydroxypropylcellulose) (HPC)
[8] = dose: 200.0 mg/kg/injection, schedule: Q01DX005 (ip), vehicle: Klucel (hydroxypropylcellulose) (HPC)
[9] = dose: 25.0 mg/kg/injection, schedule: Q01DX009 (ip), vehicle: Klucel (hydroxypropylcellulose) (HPC)
[10] = dose: 50.0 mg/kg/injection, schedule: Q01DX009 (ip), vehicle: Klucel (hydroxypropylcellulose) (HPC)
[11] = dose: 100.0 mg/kg/injection, schedule: Q01DX009 (ip), vehicle: Klucel (hydroxypropylcellulose) (HPC)
[12] = dose: 200.0 mg/kg/injection, schedule: Q01DX009 (ip), vehicle: Klucel (hydroxypropylcellulose) (HPC)
[13] = dose: 25.0 mg/kg/injection, schedule: Q01DX009 (ip), vehicle: saline
[14] = dose: 50.0 mg/kg/injection, schedule: Q01DX009 (ip), vehicle: saline
[15] = dose: 100.0 mg/kg/injection, schedule: Q01DX009 (ip), vehicle: saline
[16] = dose: 100.0 mg/kg/injection, schedule: Q04DX003 (ip), vehicle: saline with Tween-80
[17] = dose: 200.0 mg/kg/injection, schedule: Q01DX009 (ip), vehicle: saline
[18] = dose: 200.0 mg/kg/injection, schedule: Q04DX003 (ip), vehicle: saline with Tween-80
[19] = dose: 400.0 mg/kg/injection, schedule: Q04DX003 (ip), vehicle: saline with Tween-80

Measured: T/C

O=C1CC2CC(=O)C(S(=O)c3ccccc3)C2C1 (centres undefined)
inactive: [1] 96 % of control | [2] 99 % of control

O=S(=O)(c1ccc(F)cc1)C1C(c2ccccc2)=NNC1c1ccccc1Cl (centres undefined)
inactive: [3] 95 % of control | [4] 95 % of control | [5] 106 % of control

C=CCOc1cc2c(cc1C/C=C\c1ccc(OC)cc1)OCO2
inactive: [1] 102 % of control | [2] 104 % of control | dose: 240.0 mg/kg/injection, schedule: Q01DX005 (ip), vehicle: saline with Tween-80 101 % of control

O=C1C2CC3OC3CC2C(=O)N1CN1C(=O)C2CC3OC3CC2C1=O (centres undefined)
inactive: [6] 106 % of control | [7] 91 % of control | [8] 89 % of control

CC(C)=N/N=C(/N)[Se]
inactive: dose: 3.12 mg/kg/injection, schedule: Q01DX009 (ip), vehicle: saline with Tween-80 95 % of control | dose: 6.25 mg/kg/injection, schedule: Q01DX009 (ip), vehicle: saline with Tween-80 103 % of control | dose: 12.5 mg/kg/injection, schedule: Q01DX009 (ip), vehicle: saline with Tween-80 97 % of control

CC1CCC(C(C)C)C(NC(=O)c2ccncc2)C1 (centres undefined)
inactive: [6] 100 % of control | [7] 101 % of control | [8] 105 % of control

CC(C)(C)c1ccc2c(c1)C1=NC2=NC2=NC(=NC3=NC(=NC4=NC(=N1)c1ccc(C(C)(C)C)cc14)c1ccc(C(C)(C)C)cc13)c1ccc(C(C)(C)C)cc12
inactive: dose: 100.0 mg/kg/injection, schedule: Q01DX001 (ip), vehicle: Klucel (hydroxypropylcellulose) (HPC) 98 % of control | dose: 200.0 mg/kg/injection, schedule: Q01DX001 (ip), vehicle: Klucel (hydroxypropylcellulose) (HPC) 95 % of control | dose: 400.0 mg/kg/injection, schedule: Q01DX001 (ip), vehicle: Klucel (hydroxypropylcellulose) (HPC) 91 % of control

O=[N+]([O-])c1ccc(/C=N/N2CCNC2=S)o1
inactive: [9] 100 % of control | [10] 101 % of control | [11] 100 % of control | [12] 100 % of control

Cc1nsc(Br)c1[N+](=O)[O-]
inactive: [13] 105 % of control | [14] 107 % of control | [15] 107 % of control | [16] 103 % of control | [17] 109 % of control | [18] 108 % of control | [19] 115 % of control

CCCCNc1cc(C(F)(F)F)cc(N)c1N
inactive: dose: 50.0 mg/kg/injection, schedule: Q01DX005 (ip), vehicle: saline + Tween-80 + alcohol 105 % of control | dose: 100.0 mg/kg/injection, schedule: Q01DX005 (ip), vehicle: saline + Tween-80 + alcohol 108 % of control | dose: 200.0 mg/kg/injection, schedule: Q01DX005 (ip), vehicle: saline + Tween-80 + alcohol 109 % of control

COc1ccc2c(c1OC)C(N1CCc3cc4c(cc3C1=O)OCO4)OC2=O (centres undefined)
inactive: dose: 12.5 mg/kg/injection, schedule: Q01DX001 (ip), vehicle: saline + alcohol 89 % of control | dose: 25.0 mg/kg/injection, schedule: Q01DX001 (ip), vehicle: saline + alcohol 87 % of control | dose: 50.0 mg/kg/injection, schedule: Q01DX001 (ip), vehicle: saline + alcohol 87 % of control

C[C@]12CCC(=O)C=C1CC[C@@H]1[C@@H]2[C@@H](O)C[C@@]2(C)[C@H]1CC[C@]2(O)C(=O)COC(=O)c1ccc([N+](=O)[O-])cc1Cl
inactive: dose: 50.0 mg/kg/injection, schedule: Q01DX009 (ip), vehicle: saline with Tween-80 109 % of control | dose: 100.0 mg/kg/injection, schedule: Q01DX009 (ip), vehicle: saline with Tween-80 100 % of control | dose: 200.0 mg/kg/injection, schedule: Q01DX009 (ip), vehicle: saline with Tween-80 109 % of control and 86 % of control | dose: 400.0 mg/kg/injection, schedule: Q01DX009 (ip), vehicle: saline with Tween-80 86 % of control

CCCCCCCCCCCC1=C(O)C(=O)C(I)=C(O)C1=O
inactive: [3] 108 % of control | [4] 100 % of control and 108 % of control | [5] 108 % of control

C1CCN(CCCCN2CCCCC2)CC1
inactive: [13] 93 % of control | [14] 88 % of control

c1cc2ccc1CCc1ccc(cc1)CC2
inactive: dose: 100.0 mg/kg/injection, schedule: Q01DX001 (ip), vehicle: saline sonified 90 % of control | dose: 200.0 mg/kg/injection, schedule: Q01DX001 (ip), vehicle: saline sonified 100 % of control | dose: 400.0 mg/kg/injection, schedule: Q01DX001 (ip), vehicle: saline sonified 100 % of control

Cc1cc(C)n2[nH]c(=O)cc2n1
inactive: dose: 25.0 mg/kg/injection, schedule: Q01DX009 (ip), vehicle: suspension in saline 99 % of control | dose: 50.0 mg/kg/injection, schedule: Q01DX009 (ip), vehicle: suspension in saline 97 % of control | dose: 100.0 mg/kg/injection, schedule: Q01DX009 (ip), vehicle: suspension in saline 97 % of control | dose: 200.0 mg/kg/injection, schedule: Q01DX009 (ip), vehicle: suspension in saline 98 % of control

CN1CC[C@]23c4c5ccc(O)c4O[C@H]2C(=O)CC[C@@]3(O)[C@H]1C5
inactive: [14] 94 % of control | [15] 109 % of control | [17] 102 % of control

CN(C)CCNc1ccc2cc3ccc(N=Nc4ccc(N(C)C)cc4)cc3nc2c1
inactive: [16] 100 % of control | [18] 101 % of control | [19] 103 % of control

Cc1nonc1-c1ccc2c(c1)OCO2
inactive: [9] 110 % of control | [10] 105 % of control | [11] 106 % of control | [12] 105 % of control

CCOC(=O)C(C)NO (centres undefined)
inactive: [14] 97 % of control | [15] 94 % of control

O=c1[nH]cnc2cc(NCc3ccccc3)c([N+](=O)[O-])cc12
inactive: dose: 100.0 mg/kg/injection, schedule: Q04DX003 (ip), vehicle: Klucel (hydroxypropylcellulose) (HPC) 100 % of control | dose: 200.0 mg/kg/injection, schedule: Q04DX003 (ip), vehicle: Klucel (hydroxypropylcellulose) (HPC) 96 % of control | dose: 400.0 mg/kg/injection, schedule: Q04DX003 (ip), vehicle: Klucel (hydroxypropylcellulose) (HPC) 94 % of control

COc1cc2c[n+](C)c3c4cc(OC)c(OC)cc4c(OCc4ccccc4)cc3c2cc1OC
inactive: dose: 6.25 mg/kg/injection, schedule: Q01DX005 (ip), vehicle: saline with Tween-80 123 % of control and 124 % of control | dose: 12.5 mg/kg/injection, schedule: Q01DX005 (ip), vehicle: saline with Tween-80 124 % of control

Cc1nc(N)nc2c1CCC(O)S2 (centres undefined)
inactive: dose: 50.0 mg/kg/injection, schedule: Q01DX005 (ip), vehicle: saline 98 % of control | dose: 100.0 mg/kg/injection, schedule: Q01DX005 (ip), vehicle: saline 102 % of control | dose: 200.0 mg/kg/injection, schedule: Q01DX005 (ip), vehicle: saline 96 % of control

CC(=O)C1C(=O)C(=O)N(c2ccc(Cl)cc2)C1=O (centres undefined)
inactive: [10] 101 % of control | [11] 96 % of control | [12] 104 % of control

COc1cccc2c1C(=O)c1c(O)c3c(c(O)c1C2=O)C[C@@](O)(C(C)=O)C[C@@H]3OC1CC(N2CCOCC2)C(O)C(C)O1 (some centres undefined)
inactive: dose: 25.0 micrograms/kg/injection, schedule: Q04DX003 (ip), vehicle: water 112 % of control | dose: 50.0 micrograms/kg/injection, schedule: Q04DX003 (ip), vehicle: water 101 % of control and 98 % of control and 108 % of control | dose: 100.0 micrograms/kg/injection, schedule: Q04DX003 (ip), vehicle: water 115 % of control [middle of 4 runs]
